Results on 22 substances are retold here after patent US7071168B2, “Anti-cancer compounds and methods related thereto” (The Regents of the University of Colorado, priority 1998, dated 2006).

Test [1] concerns SCLC strain SHP-77. Description: Colorimetric tetrazolium (MTT) assay for cell survival, SCLC strain SHP-77. In kind it is cell-based, human. The procedure, abridged:
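MTT assay: cells seeded overnight, treated in triplicate across a concentration range for 4 days at 37 °C, 5% CO2. On day 5, MTT was added for 4 h; formazan was dissolved in acidified isopropanol and absorbance read.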

The subject of test [2] is bradykinin response of isolated guinea pig ileum. The test can be described thus: Anti-bradykinin activity on isolated guinea pig ileum. In a few lines:
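Terminal ileum segments (25 mm) from overnight-fasted male Hartley guinea pigs, in Krebs' solution gassed with 95% O2/5% CO2 under 1 g tension, equilibrated 1 h. Bradykinin concentration-effect curves constructed without and with test compounds.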

[3] abbreviates: Table 1, higher numbers indicate higher potency.

Take “Leu-DTrp-Phe-DTrp-DNMF-Eac2-DArg-Arg-Pro-Hyp-Gly-Igl-Ser-DIgl-Oic-Arg [B10160]”: in test [1] (Table 1, SHP-77, MTT, 4 days), the “MTT: ED50 for killing of SCLC strain SHP-77 in vitro” value (from here on “MTT: ED50 for killing”) turned out to be 10 µM. The “GPI: pA2 for bradykinin antagonist activity on isolated guinea pig ileum” value (“GPI: pA2” below) in test [2] (setting [3]) amounted to 6.3.
On the same counts, the results for “Leu-Leu-DTrp-Phe-DTrp-DNMF-Eac2-DArg-Arg-Pro-Hyp-Gly-Igl-Ser-Digl-Oic-Arg [B10162]” are 7 µM and 6.3.
On the same counts, the results for “Moti-DArg-Arg-Pro-Hyp-Gly-Igl-Ser-DIgl-Oic-Arg [B10100-1]” are 4 µM and 7.8.
On the same counts, the results for “Moti-DArg-Arg-Pro-Hyp-Gly-Thi-Ser-DIgl-Oic-Arg [B10104-3]” are 20 µM and 8.1.
Turning to Ppa-hPhe-Arg [M708], the “MTT: ED50 for killing” value in test [1] (Table 1, SHP-77, MTT, 4 days) was “Inact”. The “GPI: pA2” value in test [2] (setting [3]) amounted to 5.8.
Regarding “SBEC-(DArg-Arg-Eac-Ser-DF5F-Nc7G-Arg)2 [M1028]”, the “MTT: ED50 for killing” value in test [1] (Table 1, SHP-77, MTT, 4 days) is 28 µM. Also, the “GPI: pA2” value in test [2] (setting [3]) amounted to 6.7.
On the same counts, the results for “SUB-(DArg-Arg-Eac-Ser-DF5f-Nc7G-Arg)2 [M1024]” are 14 µM and 7.2.
On the same counts, the results for “SUIM-(DArg-Arg-Pro-Hyp-Gly-Igl-Ser-DIgl-Oic-Arg-NH2)2 [B10082]” are 0.7 µM and 7.2.
On the same counts, the results for “TDIM-(DArg-Arg-Pro-Hyp-Gly-Igl-Ser-DIgl-Oic-Arg)2 [B10100-2]” are 1 µM and 8.0.
Take “TDIM-(DArg-Arg-Pro-Hyp-Gly-Thi-Ser-DIgl-Oic-Arg)2 [B10104-2]”: in test [1] (Table 1, SHP-77, MTT, 4 days), the “MTT: ED50 for killing” value was 4 µM. In test [2] (setting [3]), the “GPI: pA2” value was found to be 8.0.
As for c[Ava-Igl-Ser-DF5F-Oic-Arg] [M824], the “MTT: ED50 for killing” value in test [1] (Table 3, cyclic peptides) is “Inact”. In addition, the “GPI: pA2” value in test [2] (Table 3, cyclic peptides) was determined as 5.2.
On the same counts, the results for “c[Bala-DArg-Arg-Eac-Ser-DF5F-Oic-Arg] [M910]” are 42 µM and 5.2.
Regarding c[DArg-Arg-Add-DF5F-Oic-Arg] [M870], the “MTT: ED50 for killing” value in test [1] (Table 3, cyclic peptides) is 5.5 µM. For the same substance, the “GPI: pA2” value in test [2] (Table 3, cyclic peptides) is 5.3.
On the same counts, the results for c[DArg-Arg-Add-Ser-DF5F-Oic-Arg] [M874] are 11 µM and 5.0.
On the same counts, the results for c[DArg-Arg-Add-Ser-DIgl-PFF-Arg] [M882] are 4.5 µM and “Inact”.
On the same counts, the results for c[DArg-Arg-Aud-DF5F-Oic-Arg] [M868-2] are 9.2 µM and 6.1.
For the substance c[DArg-Arg-Aud-DIgl-PFF-Arg] [M850], the “MTT: ED50 for killing” value in test [1] (Table 3, cyclic peptides) was determined as 1.4 µM. Also, the “GPI: pA2” value in test [2] (Table 3, cyclic peptides) turned out to be 5.1.
As to c[DArg-Arg-Aud-Ser-DF5F-Oic-Arg] [M876], the “MTT: ED50 for killing” value in test [1] (Table 3, cyclic peptides) was found to be 22.5 µM. For the same substance, in test [2] (Table 3, cyclic peptides), the “GPI: pA2” value was found to be 5.4.
On the same counts, the results for c[DArg-Arg-Ava-Ser-DF5F-Oic-Arg] [M908] are 40 µM and 4.9.
Take c[DArg-Arg-Ava-Ser-DIgl-PFF-Arg] [M902]: the “MTT: ED50 for killing” value in test [1] (Table 3, cyclic peptides) was found to be 30 µM. For the same substance, the “GPI: pA2” value in test [2] (Table 3, cyclic peptides) worked out at 5.5.
As to c[DArg-Arg-Eac-Ser-DF5F-Oic-Arg] [M872], in test [1] (Table 3, cyclic peptides), the “MTT: ED50 for killing” value came to 2.2 µM. Further, the “GPI: pA2” value in test [2] (Table 3, cyclic peptides) is “Inact”.
On the same counts, the results for “c[DArg-Arg-Pro-Hyp-Gly-Igl-Ser-DIgl-Oic-Arg] [B10302]” are “Inact” and 5.2.
